# Publication PMC9988962 (Scientific Reports, 2023)
# Residues, ends and D or L forms follow the SMILES beside them. *: point of attachment. NH(β-GlcNAc) = CC(=O)N[C@@H]1[C@@H](O)[C@H](O)[C@@H](CO)O[C@H]1N*
# What was measured:
# [1] = tested on: Acinetobacter baumannii ATCC 17,978; assay: microbe, parasite or virus in culture
# Experimental: (§1) Starting from a peptide stock solution, two-fold serial dilutions were sequentially carried out, accordingly to the broth microdilution method. Following over-night incubation, MIC100 values were determined as the lowest peptide concentration needed for no visible bacterial growth.
# [2] = tested on: Bacillus globigii TNO BMO13; assay: microbe, parasite or virus in culture
# Experimental: as §1
# [3] = tested on: Bacillus subtilis 6633; assay: microbe, parasite or virus in culture
# Experimental: as §1
# [4] = tested on: Escherichia coli ATCC 25,922; assay: microbe, parasite or virus in culture
# Experimental: as §1
# [5] = tested on: Klebsiella pneumoniae ATCC 700,603; assay: microbe, parasite or virus in culture
# Experimental: as §1
# [6] = tested on: MRSA WKZ-2; assay: microbe, parasite or virus in culture
# Experimental: as §1
# [7] = tested on: Pseudomonas aeruginosa 01; assay: microbe, parasite or virus in culture
# Experimental: as §1
# [8] = tested on: Staphylococcus aureus ATCC 29,213; assay: microbe, parasite or virus in culture
# Experimental: as §1
# [9] = tested on: Escherichia coli ATCC 25,922; settings: E. coli ATCC 25,922; peptide incubated in water without proteases or serum
# Experimental: as §1
# (§2) To analyze the stability of the peptides to the proteases, 100 μM of LL-III and glycosylated LL-III were incubated with 100 nM of α-chymotrypsin or pepsin at 37 °C for 15 min and then antimicrobial activity were assayed as reported above. The peptide solution without proteases was used as the control group.
# (§3) For comparison, the MIC values of untreated peptides (incubated in water) were also determined.
# [10] = tested on: Escherichia coli ATCC 25,922; settings: for MIC after treatment with pepsin / MIC after treatment with α-chymotrypsin: E. coli ATCC 25,922, 37 °C, 15 min, then MIC; for MIC after treatment with pepsin: 100 μM peptide incubated with 100 nM pepsin; for MIC after treatment with α-chymotrypsin: 100 μM peptide incubated with 100 nM α-chymotrypsin
# Experimental: as §1, §2
# [11] = tested on: Escherichia coli ATCC 25,922; settings: E. coli ATCC 25,922; 200 μM peptide solution with fetal bovine serum 1:1 (v/v), 24 h, 37 °C, then MIC
# Experimental: as §1, §3
# [12] = tested on: BALB/c 3T3 cells (normal murine fibroblasts); settings: BALB/c 3T3, two-fold dilutions of peptide, 24 h, 37 °C, 5% CO2, three independent experiments
# Experimental: In brief, 5·10^3 cells were seeded on a 96-well plate and after 16 h treated with increasing concentrations of peptides for 24 h at 37 °C and 5% CO2. Cell viability was analyzed by performing the (3-(4,5-dimethylthiazol-2-yl)-2,5 diphenyltetrazolium bromide) reduction inhibition assay (MTT assay)[42].
# Normal and transformed murine fibroblasts, 3T3 and SVT2, were treated with increasing concentration of the two peptides. After 24 h of incubation at 37 °C and 5% CO2, cells mitochondrial activity was measured performing MTT assay.
# [13] = Acinetobacter baumannii ATCC 17,978, 1 × 10^6 CFU/mL, 0.5X Nutrient Broth, over-night, MIC100
# [14] = Bacillus globigii TNO BMO13, 1 × 10^6 CFU/mL, 0.5X Nutrient Broth, over-night, MIC100
# [15] = Bacillus subtilis 6633, 1 × 10^6 CFU/mL, 0.5X Nutrient Broth, over-night, MIC100
# [16] = Escherichia coli ATCC 25,922, 1 × 10^6 CFU/mL, 0.5X Nutrient Broth, over-night, MIC100
# [17] = Klebsiella pneumoniae ATCC 700,603, 1 × 10^6 CFU/mL, 0.5X Nutrient Broth, over-night, MIC100
# [18] = MRSA WKZ-2, 1 × 10^6 CFU/mL, 0.5X Nutrient Broth, over-night, MIC100
# [19] = Pseudomonas aeruginosa 01, 1 × 10^6 CFU/mL, 0.5X Nutrient Broth, over-night, MIC100
# [20] = Staphylococcus aureus ATCC 29,213, 1 × 10^6 CFU/mL, 0.5X Nutrient Broth, over-night, MIC100
# [21] = from MIC values against E. coli after 15 min at 37 °C with protease
SMILES,"MIC [1, 13] [µM]","MIC [2, 14] [µM]","MIC [3, 15] [µM]","MIC [4, 16] [µM]","MIC [5, 17] [µM]","MIC [6, 18] [µM]","MIC [7, 19] [µM]","MIC [8, 20] [µM]",MIC after treatment in water (control) [9] [µM],MIC after treatment with pepsin [10] [µM],MIC after treatment with α-chymotrypsin [10] [µM],MIC after treatment with 50% FBS [11] [µM],further results
O=C(O)c1cn(C2CC2)c2cc(N3CCNCC3)c(F)cc2c1=O [Ciprofloxacin],,,,,,,,,,,,,"MIC ([1]; Acinetobacter baumannii): 0.15 µM; MIC ([2]; Bacillus subtilis, TNOBMO13): 0.3 µM; MIC ([3]; Bacillus subtilis, 6633): 0.15 µM; MIC ([4]; Escherichia coli): 0.15 µM; MIC ([5]; Klebsiella pneumoniae): 1.2 µM; MIC ([6]; Staphylococcus aureus, MRSA): 0.3 µM; MIC ([7]; Pseudomonas aeruginosa, 01): 0.3 µM; MIC ([8]; Staphylococcus aureus, ATCC29): 0.6 µM"
"CC[C@H](C)[C@H](NC(=O)[C@H](CCCCN)NC(=O)[C@H](CCCCN)NC(=O)[C@H](Cc1c[nH]c2ccccc12)NC(=O)[C@H](CC(N)=O)NC(=O)[C@@H](N)C(C)C)C(=O)N[C@@H](CC(C)C)C(=O)NCC(=O)N[C@@H](CCCCN)C(=O)N[C@H](C(=O)N[C@H](C(=O)N[C@@H](CCCCN)C(=O)N[C@H](C(=O)N[C@H](C(=O)N[C@@H](CCCCN)C(N)=O)C(C)C)C(C)C)[C@@H](C)CC)[C@@H](C)CC [LL-III, Lasioglossin III] (H-VNWKKILGKIIKVVK-NH2)",3.12,1.56,1.56,3.12,3.12,3.12,1.56,1.56,3.12,12.5,25,6.25,
CC[C@H](C)[C@H](NC(=O)[C@H](CCCCN)NC(=O)[C@H](CCCCN)NC(=O)[C@H](Cc1c[nH]c2ccccc12)NC(=O)[C@H](CC(=O)N[C@@H]1O[C@H](CO)[C@@H](O)[C@H](O)[C@H]1NC(C)=O)NC(=O)[C@@H](N)C(C)C)C(=O)N[C@@H](CC(C)C)C(=O)NCC(=O)N[C@@H](CCCCN)C(=O)N[C@H](C(=O)N[C@H](C(=O)N[C@@H](CCCCN)C(=O)N[C@H](C(=O)N[C@H](C(=O)N[C@@H](CCCCN)C(N)=O)C(C)C)C(C)C)[C@@H](C)CC)[C@@H](C)CC [g-LL-III] (H-VD(NH(β-GlcNAc))WKKILGKIIKVVK-NH2),3.12,1.56,1.56,3.12,3.12,3.12,3.12,1.56,3.12,6.25,6.25,3.12,"reduction of susceptibility to pepsin versus parental peptide [10, 21]: 2 times; reduction of susceptibility to α-chymotrypsin versus parental peptide [10, 21]: 4 times; cell viability (MTT), g-LL-III compared with LL-III [12]: no significant differences"
